# Key:
# bedstraw = test: Test B pre/postemergence bedstraw; assay type: in vivo, Galium aparine
# Method in brief: (§1)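 Test chemicals in a non-phytotoxic solvent mixture with surfactant were sprayed preemergence onto planted seeds and postemergence onto plants 2 to 18 cm tall (1- to 4-leaf stage). After twelve to sixteen days in a greenhouse, injury was visually rated against untreated controls from 0 (no effect) to 10 (complete control).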
# wheat = test: Test B pre/postemergence wheat; assay type: in vivo, Triticum aestivum
# Method in brief: as §1
# surinam grass = test: Test B pre/postemergence surinam grass; assay type: in vivo, Brachiaria decumbens
# Method in brief: as §1
# crabgrass = test: Test B pre/postemergence crabgrass; assay type: in vivo, Digitaria sanguinalis
# Method in brief: as §1
# rape = test: Test B pre/postemergence rape; assay type: in vivo, Brassica napus
# Method in brief: as §1
# sugar beet = test: Test B pre/postemergence sugar beet; assay type: in vivo, Beta vulgaris
# Method in brief: as §1
# corn = test: Test B pre/postemergence corn; assay type: in vivo, Zea mays
# Method in brief: as §1
# blackgrass = test: Test B pre/postemergence blackgrass; assay type: in vivo, Alopecurus myosuroides
# Method in brief: as §1
# pigweed = test: Test B pre/postemergence pigweed; assay type: in vivo, Amaranthus retroflexus
# Method in brief: as §1
# purple nutsedge = test: Test B pre/postemergence purple nutsedge; assay type: in vivo, Cyperus rotundus
# Method in brief: as §1
# cocklebur = test: Test B pre/postemergence cocklebur; assay type: in vivo, Xanthium strumarium
# Method in brief: as §1
# morningglory = test: Test B pre/postemergence morningglory; assay type: in vivo, Ipomoea hederacea
# Method in brief: as §1
# wild oat = test: Test B pre/postemergence wild oat; assay type: in vivo, Avena fatua
# Method in brief: as §1
# velvetleaf = test: Test B pre/postemergence velvetleaf; assay type: in vivo, Abutilon theophrasti
# Method in brief: as §1
# giant foxtail = test: Test B pre/postemergence giant foxtail; assay type: in vivo, Setaria faberii
# Method in brief: as §1
# soybean = test: Test B pre/postemergence soybean; assay type: in vivo, Glycine max
# Method in brief: as §1
# [1] = Preemergence, Rate 62 g/ha, scale of 0 to 10 where 0 is no effect and 10 is complete control
# [2] = Preemergence, Rate 125 g/ha, scale of 0 to 10 where 0 is no effect and 10 is complete control
# [3] = Preemergence, Rate 250 g/ha, scale 0 to 10 (0 no effect, 10 complete control)
# [4] = Preemergence, Rate 500 g/ha, scale of 0 to 10 where 0 is no effect and 10 is complete control
# [5] = Rate 500 g/ha, Postemergence, scale 0 to 10, 0 is no effect, 10 is complete control
# [6] = Postemergence, Rate 62 g/ha, scale 0 to 10, 0 is no effect, 10 is complete control
# [7] = Postemergence, Rate 125 g/ha, scale of 0 to 10 where 0 is no effect and 10 is complete control
# [8] = Postemergence, Rate 250 g/ha, scale of 0 to 10, 0 is no effect, 10 is complete control
structure (smiles),measurement,setting,value
CC(C)N(C(=O)n1oc(=O)n(CCF)c1=O)c1ccc(F)cc1F [Compound 670],Bedstraw plant response rating,bedstraw; [1],8
same,"Plant response rating, Bedstraw",bedstraw; [2],8
same,"Plant response rating, Bedstraw",bedstraw; [3],9
same,"Plant response rating, Bedstraw",bedstraw; [4],9
same,Bedstraw plant response rating,bedstraw; [5],8
same,"Plant response rating, Wheat",wheat; [6],0
same,Wheat plant response rating,wheat; [7],0
same,Wheat plant response rating,wheat; [1],7
same,"Plant response rating, Wheat",wheat; [2],9
same,"Plant response rating, Wheat",wheat; [3],9
same,"Plant response rating, Wheat",wheat; [4],9
same,Wheat plant response rating,wheat; [5],4
same,"Plant response rating, B. signalgrass",surinam grass; [6],3
same,"Plant response rating, B. signalgrass",surinam grass; [7],7
same,B. signalgrass plant response rating,surinam grass; [8],7
same,B. signalgrass plant response rating,surinam grass; [1],8
same,"Plant response rating, B. signalgrass",surinam grass; [2],9
same,"Plant response rating, B. signalgrass",surinam grass; [3],10
same,"Plant response rating, B. signalgrass",surinam grass; [4],10
same,B. signalgrass plant response rating,surinam grass; [5],8
same,"Plant response rating, Crabgrass",crabgrass; [6],9
same,Crabgrass plant response rating,crabgrass; [7],8
same,Crabgrass plant response rating,crabgrass; [8],8
same,Crabgrass plant response rating,crabgrass; [1],10
same,"Plant response rating, Crabgrass",crabgrass; [2],10
same,"Plant response rating, Crabgrass",crabgrass; [3],10
same,"Plant response rating, Crabgrass",crabgrass; [4],10
same,Crabgrass plant response rating,crabgrass; [5],8
same,"Plant response rating, Rape",rape; [6],0
same,Rape plant response rating,rape; [7],2
same,Rape plant response rating,rape; [1],8
same,"Plant response rating, Rape",rape; [2],9
same,"Plant response rating, Rape",rape; [3],10
same,"Plant response rating, Rape",rape; [4],10
same,Rape plant response rating,rape; [5],4
same,"Plant response rating, Sugarbeets",sugar beet; [6],0
same,Sugarbeets plant response rating,sugar beet; [7],2
same,Sugarbeets plant response rating,sugar beet; [1],8
same,"Plant response rating, Sugarbeets",sugar beet; [2],9
same,"Plant response rating, Sugarbeets",sugar beet; [3],9
same,"Plant response rating, Sugarbeets",sugar beet; [4],9
same,Sugarbeets plant response rating,sugar beet; [5],2
same,"Plant response rating, Corn",corn; [6],3
same,Corn plant response rating,corn; [7],4
same,Corn plant response rating,corn; [8],5
same,Corn plant response rating,corn; [1],2
same,"Plant response rating, Corn",corn; [2],4
same,"Plant response rating, Corn",corn; [3],8
same,"Plant response rating, Corn",corn; [4],9
same,Corn plant response rating,corn; [5],6
same,"Plant response rating, Blackgrass",blackgrass; [6],2
same,Blackgrass plant response rating,blackgrass; [7],4
same,Blackgrass plant response rating,blackgrass; [8],5
same,Blackgrass plant response rating,blackgrass; [1],8
same,"Plant response rating, Blackgrass",blackgrass; [2],9
same,"Plant response rating, Blackgrass",blackgrass; [3],10
same,"Plant response rating, Blackgrass",blackgrass; [4],10
same,Blackgrass plant response rating,blackgrass; [5],5
same,"Plant response rating, Redroot pigweed",pigweed; [6],7
same,Redroot pigweed plant response rating,pigweed; [7],7
same,Redroot pigweed plant response rating,pigweed; [1],9
same,"Plant response rating, Redroot pigweed",pigweed; [2],10
same,"Plant response rating, Redroot pigweed",pigweed; [3],10
same,"Plant response rating, Redroot pigweed",pigweed; [4],10
same,Redroot pigweed plant response rating,pigweed; [5],9
same,"Plant response rating, Nutsedge",purple nutsedge; [6],0
same,Nutsedge plant response rating,purple nutsedge; [7],4
same,"Plant response rating, Nutsedge",purple nutsedge; [2],5
same,"Plant response rating, Nutsedge",purple nutsedge; [3],8
same,"Plant response rating, Nutsedge",purple nutsedge; [4],10
same,Nutsedge plant response rating,purple nutsedge; [5],5
same,"Plant response rating, Cocklebur",cocklebur; [6],2
same,Cocklebur plant response rating,cocklebur; [7],2
same,Cocklebur plant response rating,cocklebur; [8],2
same,Cocklebur plant response rating,cocklebur; [1],0
same,"Plant response rating, Cocklebur",cocklebur; [2],0
same,"Plant response rating, Cocklebur",cocklebur; [4],2
same,Cocklebur plant response rating,cocklebur; [5],3
same,"Plant response rating, Morningglory",morningglory; [6],3
same,Morningglory plant response rating,morningglory; [7],3
same,Morningglory plant response rating,morningglory; [8],6
same,Morningglory plant response rating,morningglory; [1],2
same,"Plant response rating, Morningglory",morningglory; [2],7
same,"Plant response rating, Morningglory",morningglory; [3],8
same,"Plant response rating, Morningglory",morningglory; [4],8
same,Morningglory plant response rating,morningglory; [5],4
same,"Plant response rating, Wild oats",wild oat; [6],0
same,Wild oats plant response rating,wild oat; [7],0
same,Wild oats plant response rating,wild oat; [1],7
same,"Plant response rating, Wild oats",wild oat; [2],9
same,"Plant response rating, Wild oats",wild oat; [3],9
same,"Plant response rating, Wild oats",wild oat; [4],9
same,Wild oats plant response rating,wild oat; [5],3
same,"Plant response rating, Velvetleaf",velvetleaf; [6],5
same,Velvetleaf plant response rating,velvetleaf; [7],5
same,Velvetleaf plant response rating,velvetleaf; [1],6
same,"Plant response rating, Velvetleaf",velvetleaf; [2],8
same,"Plant response rating, Velvetleaf",velvetleaf; [3],8
same,"Plant response rating, Velvetleaf",velvetleaf; [4],8
same,Velvetleaf plant response rating,velvetleaf; [5],4
same,"Plant response rating, Giant foxtail",giant foxtail; [6],9
same,Giant foxtail plant response rating,giant foxtail; [7],9
same,Giant foxtail plant response rating,giant foxtail; [8],9
same,Giant foxtail plant response rating,giant foxtail; [1],10
same,"Plant response rating, Giant foxtail",giant foxtail; [2],10
same,"Plant response rating, Giant foxtail",giant foxtail; [3],10
same,"Plant response rating, Giant foxtail",giant foxtail; [4],10
same,Giant foxtail plant response rating,giant foxtail; [5],9
same,"Plant response rating, Soybean",soybean; [6],3
same,Soybean plant response rating,soybean; [7],2
same,Soybean plant response rating,soybean; [1],0
same,"Plant response rating, Soybean",soybean; [2],3
same,"Plant response rating, Soybean",soybean; [3],8
same,"Plant response rating, Soybean",soybean; [4],9
same,Soybean plant response rating,soybean; [5],5

# — US6737383B1, “Herbicidal oxadiazolidines” (priority 1999, dated 2004)
